Patent US20130040990A1, “SYNTHESIS OF DGJNAc FROM D-GLUCURONOLACTONE AND USE TO INHIBIT ALPHA-N-ACETYLGALACTOSAMINIDASES” (The Chancellor, Masters and Scholars of the University of …, priority 2010, published 2013)

What was measured:
[1] = molecular target: α-N-acetylgalactosaminidase (GalNAcase) from Charonia lampas; assay: Inhibition of GalNAcase from Charonia lampas; type: biochemical; conditions: competitive inhibition
[2] = molecular target: T1, coffee bean α-galactosidase (Coffea arabica, UniProt Q42656); assay: biochemical
T1 construct: coffee bean α-galactosidase; from tissue; host or cells: coffee bean

[3] = molecular target: β-hexosaminidase from HL-60; assay: Inhibition of β-hexosaminidase from HL-60; type: biochemical
[4] = molecular target: β-hexosaminidase from Jack bean; assay: Inhibition of β-hexosaminidase from Jack bean; type: biochemical
[5] = molecular target: β-hexosaminidase from bovine kidney; assay: Inhibition of β-hexosaminidase from bovine kidney; type: biochemical
[6] = molecular target: T2, α-N-acetylgalactosaminidase (GalNAcase) from chicken liver (Gallus gallus, UniProt Q90744); assay: Inhibition of GalNAcase from chicken liver; type: biochemical; conditions: competitive inhibition
T2 construct: from tissue; host or cells: chicken liver
T2 sequence (Q90744 1-405): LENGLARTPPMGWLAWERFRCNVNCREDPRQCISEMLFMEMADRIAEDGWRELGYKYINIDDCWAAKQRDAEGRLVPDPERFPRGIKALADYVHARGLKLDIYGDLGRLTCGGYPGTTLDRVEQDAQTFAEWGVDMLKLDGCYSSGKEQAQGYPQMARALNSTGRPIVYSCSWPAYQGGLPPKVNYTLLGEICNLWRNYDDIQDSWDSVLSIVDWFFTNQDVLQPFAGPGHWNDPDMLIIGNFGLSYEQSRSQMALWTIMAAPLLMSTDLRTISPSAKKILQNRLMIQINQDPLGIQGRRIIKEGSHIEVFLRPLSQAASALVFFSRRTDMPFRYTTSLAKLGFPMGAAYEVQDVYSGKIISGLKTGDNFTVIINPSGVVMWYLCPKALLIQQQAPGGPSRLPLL

[7] = molecular target: β-hexosaminidase from human placenta; assay: Inhibition of β-hexosaminidase from human placenta; type: biochemical; conditions: for Ki: 1L non-competitive, 1D competitive
[8] = system: α-N-acetylgalactosaminidases; assay: Inhibition of α-N-acetylgalactosaminidases (source not given); type: biochemical
β-hexosaminidases = conditions: literature statement; cited from earlier work
GalNAcases = conditions: literature statement; cited from earlier work

T1 sequence (Q42656 16-378): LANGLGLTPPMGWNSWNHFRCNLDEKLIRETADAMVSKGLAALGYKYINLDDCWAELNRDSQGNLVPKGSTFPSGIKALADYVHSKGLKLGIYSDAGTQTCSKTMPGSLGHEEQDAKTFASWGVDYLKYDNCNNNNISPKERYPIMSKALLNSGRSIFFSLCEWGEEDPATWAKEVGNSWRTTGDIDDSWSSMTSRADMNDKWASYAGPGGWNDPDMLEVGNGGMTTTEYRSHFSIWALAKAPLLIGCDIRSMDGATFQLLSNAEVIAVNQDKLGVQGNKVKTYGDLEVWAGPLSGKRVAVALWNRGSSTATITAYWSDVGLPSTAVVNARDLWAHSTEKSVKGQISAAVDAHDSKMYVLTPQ

Question: Which Ki [1] does the source give for CC(=O)N[C@H]1CN[C@H](CO)[C@H](O)[C@@H]1O [DGJNAc 1D, 2-acetamido-1,2-dideoxy-D-galacto-nojirimycin] here?
Answer: Its Ki is 0.136 µM.

Question: And the IC50 [2]?
Answer: The IC50 was 64 µM.

Question: What about the IC50 [3] of the same compound?
Answer: Its IC50 is 2.2 µM.

Question: What about the IC50 [4] of the same compound?
Answer: Its IC50 is 1.8 µM.

Question: What about the IC50 [5] of the same compound?
Answer: Its IC50 is 4.2 µM.

Question: And the Ki [6]?
Answer: The Ki was 0.081 µM.

Question: And the IC50 [7]?
Answer: The IC50 was 8.3 µM.

Question: What about the Ki [7] of the same compound?
Answer: The Ki was 2.2 µM.

Question: What does the source list for CC(=O)NC1CNC(CO)C(O)C1O [L-DGJNAc 1L]?
Answer: inhibition of coffee bean α-galactosidase [2]: no inhibition; inhibition of α-N-acetylgalactosaminidases [8]: no inhibition; Ki [7]: 1100 µM

Question: Which results are given for CC(=O)N[C@H]1c2nc(CC(=O)O)cn2[C@H](CO)[C@H](O)[C@@H]1O [nagstatin 4, nagstatin]?
Answer: inhibition of β-hexosaminidases (β-hexosaminidases): potent inhibitor; inhibition of GalNAcases (GalNAcases): does not inhibit
